Experimental data from patent US10265383B2, “Treatment of radiation injury using ghrelin” (priority 2014, dated 2019).
Where no end group is shown, it is not given here. The star is where a group is joined. Octanoyl = CCCCCCCC(=O)*

What was measured:
[1] = tested on: Bcl-xl; experiment: Western blot of jejunal Bcl-xl protein; assay type: in vivo, rat; details: jejunum, Day 7 after 10 Gy WBI
Method: (§1) Animal model of whole body irradiation. Rats were exposed to whole body irradiation (WBI) of 10 Gray (Gy) using a Gammacell® 1000 Irradiator (Atomic Energy of Canada Ltd) [radiation source: Cesium-137 (^137Cs)] delivered at a dose rate of about 2.5 GY/min. The animals were sedated with intra-peritoneal pentobarbital (40 mg/kg BW) prior to irradiation. During radiation, the container rotated continuously in front of the radiation source for even exposure. The animals were then returned to their cages, and food and water were provided.
(§2) Blood and Tissue Collection after WBI. Rats exposed to 10 Gy WBI were treated with 20 nmol/rat human ghrelin once a day for 6 days starting at 24 h after radiation. At the 7th day, rats were euthanized, and blood, liver and the small intestine were removed under sterile conditions. […]
(§3) Western blot analysis. […] After overnight incubation with the primary antibodies at 4° C., the membranes were washed with TBS-T Immunoreactive bands were detected using HRP-linked secondary antibody (Southern Biotech, Birmingham, Ala.) and the Enhanced Chemiluminescence (ECL) Western blot detection kit (Amersham, Piscataway, N.J.). The immunoblots were exposed to X-ray film and analyzed with the NIH Image J analysis system. […]

[2] = tested on: Bax; experiment: Western blot of jejunal Bax protein; assay type: in vivo, rat; details: jejunum, Day 7 after 10 Gy WBI; slightly elevated in vehicle
Method: as §1, §2, §3

[3] = tested on: pAkt; experiment: Western blot of jejunal pAkt expression; assay type: in vivo, rat; details: jejunum, Day 7 after 10 Gy WBI; versus vehicle
Method: as §1, §2, §3

[4] = tested on: serum endotoxin; experiment: Serum endotoxin levels (LAL assay); assay type: in vivo; details: Day 7 after 10 Gy WBI; 20 nmol/rat for 6 days from 24 h
Method: as §1
as §2, with “conditions. The blood was allowed to clot and following centrifugation, the serum was transferred into pyrogenic free sterile tubes, and stored at −80° C. until further analysis.” for “conditions.”
Serum endotoxin levels. Bacterial endotoxin levels in the serum were determined by the endpoint Chromogenic Limulus Amebocyte Lysate (LAL) assay (QC-1000, Lonza, Walkervilles, Md. USA) and expressed in EU/ml. Samples were analyzed according to manufacturer's instruction. Endotoxin levels which are ≥0.1EU/ml can be measured using this assay.

[5] = tested on: serum albumin; experiment: Serum albumin level after WBI; assay type: in vivo, rat; details: Day 7 after 10 Gy WBI; WBI decreased it by 19%
Method: as §1
as §2, with “conditions. The blood was allowed to clot and following centrifugation, the serum was transferred into pyrogenic free sterile tubes, and stored at −80° C. until further analysis. Liver (0.25 g) was snap-frozen in liquid nitrogen and stored at −80° C. for subsequent bacterial translocation analysis.” for “conditions.”
Serum glucose and albumin levels. Serum levels of glucose and albumin were determined using Liquid Glucose Hexokinase Reagent Set and Albumin Reagent Set (Pointe Scientific, Inc.) respectively according to manufacturer's instructions.

[6] = tested on: rat ileum; experiment: Gut permeability, ex-vivo isolated everted ileal sac (FD4 clearance); assay type: in vivo; details: Day 7 after 10 Gy WBI, 20 nmol/rat for 6 days from 24 h
Method: as §1
Blood and Tissue Collection after WBI. Rats exposed to 10 Gy WBI were treated with 20 nmol/rat human ghrelin once a day for 6 days starting at 24 h after radiation. […]
Gut Permeability. Small intestinal mucosal barrier function was assessed by using the ex-vivo isolated everted ileal sac as originally described by Wattanasirichaigoon et al. in 1999 [26] and used by others. […] The length and the diameter of the gut sac were then measured. […] Fluorescence measurements were made with a CYTOFLUOR 2 fluorescence plate reader (PerSeptive Biosystems, Framingham, Mass.) at an excitation wavelength of 480 nm and an emission wavelength of 520 nm. Gut permeability was expressed as the mucosal-to-serosal clearance of FD4 as described in detail by Wattanasirichaigoon et al.. […]

ghrelin (GSS(Octanoyl)FLSPEHQRVQQRKESKKPPAKLQPR; listed as Homo sapiens) [human ghrelin]
Bcl-xl protein levels, restored by ([1]; vehicle 34% reduction): 75% | Bcl-xl/Bax ratio, increase from the vehicle ([1]; vehicle 54% reduction): 55% | Bax protein [2]: remain same as sham | intestinal pAkt expression [3]: further significantly increased | serum endotoxin levels, decrease [4]: 42% | serum albumin levels [5]: restored to sham values | gut permeability, reduction from Vehicle [6]: 38%
